Columns and labels:
[1] = ATP cell viability assay (CellTiter-Glo) cytotoxicity; type: cell-based; conditions: human, 70% lopinavir loaded, 24 hours incubation
Excerpt: (§1) HepG2 (hepatic) and Caco-2 (intestinal) cells were purchased from American Type Tissue Culture (ATCC; USA) and maintained in Dulbecco's modified eagle's medium (DMEM; Sigma; Dorest, Uk) supplemented with 10% fetal bovine serum (FBS; Bio-Whittaker, Berkshire, Uk) for HepG2 and 15% FBS for Caco-2. CEM (lymphocyte) and THP-1 (monocyte) cells were purchased from European Collection of Cell Culture (ECACC; Porton Down, Uk) and grown in RPMI-1640 (Sigma; Dorest, Uk) supplemented with 10% FBS. All cell lines were incubated at 37° C. and 5% CO2 and for adherent cells (HepG2 and Caco-2) were routinely sub-cultured every 4 days when 95% confluent. Suspension cells (CEM and THP-1) were routinely sub-cultured when a density of 1×10^6 cells/ml was achieved. Cell count and viability was determined by Trypan Blue exclusion assay.
(§2) HepG2, Caco-2, THP-1, CEM and A-THP-1 cells were separately seeded at a density of 2.5×10^4/100 μl in their appropriate media into each well of a 96 well plate (Nunclon™, Denmark) and incubated for 24 hours at 37° C. and 5% CO2. Media was then aspirated and replaced with media containing 0.1, 1, 10, 100, 500 or 1000 μM, calculated from molarity of lopinavir (145 samples), of each lopinavir dispersion and incubated for a further 24 hours. The same procedure was followed for each individual excipient (23 samples) with concentrations range of 1 μM to 1M.
Prior to starting viability assays, all reagents were made fresh and in accordance to manufacturer's instructions and allowed to equilibrate to room temperature immediately before use. After 24 hours incubation, 96 well plates were removed from the incubator and the plate and its contents allowed too equilibrate to room temperature for approximately 30 minutes. After 30 minutes, 80 μl of media was aspirated from each individual well and 20 μl CellTiter-Glo® Reagent (Promega, UK) was added to the remaining media and cells. The contents were then mixed for 2 minutes on an orbital shaker to induce cell lysis. The plate was then further incubated at room temperature for 10 minutes to stabilise luminescent signal. Luminescence was then measured using a Tecan Genios plate reader (Tecan; Austria).

[2] = as above; type: cell-based; conditions: human, A-THP-1 (PMA-activated THP-1, macrophage like) cells, 70% lopinavir loaded, 24 hours incubation
Excerpt: as §1, with “assay. […]” for “assay.”
as §2, with “The same procedure was followed for each individual excipient (23 samples) with concentrations range of 1 μM to 1M.” left out

[3] = biological target: recombinant HIV-1 protease (UniProt P04585); test: Inhibition of recombinant HIV-1 protease; type: biochemical; conditions: 70% loaded; cell-free assay; read-out: IC50 against recombinant HIV protease
Description: HIV-1 protease inhibition screening was conducted as per manufacturers' instructions (Roche Diagnostics GmbH; Germany). […] The entire sample (60 μl) was then transferred into microplate modules and incubated for a further 60 minutes at 37° C. The samples were then aspirated and washed ×5 with 250 μl of wash buffer. After the final aspiration, 200 μl of reconstituted anti-digoxigenin-peroxidase (Anti-DIG-POD) polyclonal antibody (200 mU/ml final concentration) was added to all wells and the plate returned to the incubator for a further 60 minutes at 37° C. The samples were aspirated and washed ×5 with wash buffer. Finally, after the final wash buffer was aspirated, 200 μl of ABTS substrate was added to each well and the plate incubated at room temperature for 15 minutes. Absorbance was then measured at 405 nm using FLUOstar Omega microplate reader (BMG Labtech, Uk).

HIVIIIB = test: Inhibition of cultured HIV-IIIB in MT4 cells (MTT assay); type: cell-based, HIVIIIB in human T-cell line MT4; conditions: Human immunodeficiency virus 1, 120 h, 70% loaded, 5 days, read-out: IC50 (Table 10, activity against cultured HIV virus)
Description: HIVIIIB and the human T-cell line, MT4, were supplied by the National Institute for Biological Standards and Control (NIBSC), the Centre for AIDS Reagents (CFAR: Hertfordshire, Uk). MT4 cells were grown and routinely maintained in RPMI-1640 (Sigma; Dorest, Uk) supplemented with 10% fetal bovine serum (FBS; Bio-Whittaker, Berkshire, Uk) at 37° C. and 5% CO2 and sub-cultured every 3 days. Cell counts and viability was determined by Trypan Blue exclusion using a disposable plastic haemocytometer (Labtech International Ltd, UK). HIVIIIB was propagated by passage through MT4 cells in RPMI-1640 and 10% FBS for 12 days and a subsequent multiplicity of infection (MOI) was determined by MTT assay.
MT4 cells were dispensed into 50 ml falcon tubes and centrifuged at 2000 rpm and 4° C. for 5 minutes. The supernantant was aspirated and the resulting pellet resuspended to a cell density of 1×10^5/ml in RPMI 1640 supplemented with 10% FBS and 1 ml of viral isolate (M.O.I 0.001). After further centrifugation for 5 minutes at 2000 rpm, the MT4/HIVIIIB pellet was incubated at 37° C. and 5% CO2 for 2 hours. […]
Following incubation for 5 days of MT4/HIVIIIB with nano formulated LOPINAVIR at 37° C. and 5% CO2. […] Absorbance was read at 570 nm on a plate reader (Tecan Magellan, Austria).

Cc1cccc(C)c1OCC(=O)N[C@@H](Cc1ccccc1)[C@@H](O)C[C@H](Cc1ccccc1)NC(=O)[C@H](C(C)C)N1CCCNC1=O [Aqueous solution, lopinavir]
IC50 at 24 h ([1]; CEM (lymphocyte) cells): 100 µM
IC50 at 24 h ([1]; Caco-2 (intestinal) cells): 52.5 µM
IC50 at 24 h ([1]; HepG2 (hepatic) cells): 35.8 µM
IC50 at 24 h ([1]; THP-1 (monocyte) cells): 28.3 µM
IC50 at 24 h [2]: 84.3 µM
IC50 [3]: 0.032 µM
IC50 (HIVIIIB): 0.056 µM

From patent publication US10603279B2, “Compositions of lopinavir” (The University of Liverpool, priority 2011, dated 2020)
